The values below come from patent US3939150A, “Penicillin derivatives” (priority 1973, dated 1976).

Entries after “also recorded” stand apart in the source; their conditions may differ.

Series [1] concerns Pseudomonas aeruginosa 35 strain. Description: MIC distribution, clinical isolated strains. The settings on record: of 35 strains. The class given is cell-based. From the text:
(Pseudomonas aeruginosa 35 strain)
(§1) It is clear from the results shown in the above tables, as regards the antibacterial activities against clinical isolated strains, the compounds of this invention show quite high activity against not only Pseudomonas aeruginosa but also against Klebsiella as compared with carbenicillin

Another series deals with Klebsiella genus. The settings on record: background; cited from earlier work.
The subject of a further series is Klebsiella 78 strain. As to the kind of experiment: MIC distribution, clinical isolated strains. The class given is cell-based. The settings on record: of 78 strains; for number of strains with MIC 100: MIC 100 μ/ml.
Text: as §1

The subject of a further series is male dd-N mice. As to the kind of experiment: Acute toxicity (minimum lethal dose). The class given is in vivo. From the text:
a. The minimum lethal doses (MLD) when the compound of this invention was intravenously and subcutaneously administered to male dd-N mice are shown in Table X.

Series [2] relates to Proteus mirabilis 1287 strain. As to the kind of experiment: Protective effect against experimentally infected mice, one subcutaneous administration. The settings on record: s.c. once, 2 hours after challenge. It counts as in vivo, mice infected with Proteus mirabilis. The procedure: d. Mice (one group included five mice) were infected with Proteus mirabilis 1287 strain via the intraperitoneal route and a solution prepared by dissolving the test antiobiotics in sterilized distilled water was once administered by subcutaneous injection 2 hours after of challenge of the test organism.

The subject of series [3] is male Sprague-Dawley rats. Description: Nephrotoxicity after 1 week subcutaneous injection. It counts as in vivo. The settings on record: 7 days. How it is done:
b. Test antibiotics were administered to male Sprague-Dawley rats by subcutaneous injection daily for 7 days. After seven days, animals were sacrificed and estimated for organ weight and serum urea-nitrogen including visual studies of kidney.

Series [4] concerns Pseudomonas aeruginosa NC-5 strain. As to the kind of experiment: Protective effect against experimentally infected mice, one subcutaneous administration. The class given is in vivo, mice infected with Pseudomonas aeruginosa. As to conditions: s.c. once. From the text: a. Mice (one group included five mice) were infected with pseudomonas aeruginosa NC-5 strain the intraperitoneal route and a solution prepared by dissolving the test antibiotics in sterilized distilled water was once administered by subcutaneous injection immediately after challenge of the test organism and then the numbers of living mice were inspected. […] (The figures shown in Tables VII-IX have the same meaning).

Series [5] deals with Escherichia coli 31 strain. As to the kind of experiment: MIC distribution, clinical isolated strains. It counts as cell-based. As to conditions: of 31 strains.
Text: (Escherichia coli 31 strain)
as §1

In series [6] the test system is male Sprague-Dawley rats. As to the kind of experiment: Acute nephrotoxicity in combination with glycerol and furocemide in rats. The class given is in vivo. The settings on record: for Serum urea nitrogen: with glycerol 4 ml/Kg of 50% and furocemide 50 mg/Kg s.c., 48 hours; for serum urea nitrogen relative to control group (in words): with glycerol and furocemide. The procedure:
c. Glycerol (50%, 4 ml/kg), furocemide (50 mg/kg) and test actibiotics were injected subcutaneously in male Sprague-Dawley rats. […] Animals of each group were sacrificed 48 hours later to estimate serum urea-nitrogen values.

Series [7] has as its system Pseudomonas aeruginosa NC-5 strain. As to the kind of experiment: Protective effect against experimentally infected mice, three subcutaneous administrations. The class given is in vivo, mice infected with Pseudomonas aeruginosa. As to conditions: s.c. The procedure: b. Mice (one group included five mice) were infected with pseudomonas aeruginosa NC-5 strain via intraperitoneal route and a solution prepared by dissolving the test substance in sterilized distilled water was administered by subcutaneous injection three times, i. e., immediately after challenge of the test organism, after 2 hours, and after 4 hours.

For series [8] the following is noted: cited from earlier work.
The subject of series [9] is Pseudomonas aeruginosa NC-5 strain. Description: Protective effect against experimentally infected mice, two oral administrations. The class given is in vivo, mice infected with Pseudomonas aeruginosa. The procedure: c. Mice (one group included five mice) were infected with Pseudomonas aeruginosa NC-5 strain via the intraperitoneal route and the test substance was orally administered twice, i. e., immediately after challenge of the test organism and after 2 hours.

For another series, the system named is gram negative bacteria. The settings on record: background; cited from earlier work.
Series [10] concerns male Sprague-Dawley rats. The settings on record: small dose subcutaneously; cited from earlier work.

Consider `CC1(C)S[C@@H]2[C@H](NC(=O)C(C(=O)O)c3ccccc3)C(=O)N2[C@H]1C(=O)O` (stereo partly drawn) [Carbenicillin, α-carboxybenzylpenicillin], for which the “number of strains with MIC 1.56” value in [1] (MIC 1.56 μ/ml) is on record as 0; in the series with Klebsiella 78 strain (MIC 1.56 μ/ml), 1; in series [5] (MIC 1.56 μ/ml), 1. In addition, the “number of strains with MIC […]” value in series [1] (MIC 3.13 μ/ml) was found to be 0; in series [1] (MIC 6.25 μ/ml), 0; in the series with Klebsiella 78 strain (MIC 3.13 μ/ml) it was 1; in the series on Klebsiella 78 strain (MIC 6.25 μ/ml), 1; in [5] (MIC 3.13 μ/ml), 7; in series [5] (MIC 6.25 μ/ml), 8. Further, the results for the “number of strains with MIC 12.5” value (in series [1] (MIC 12.5 μ/ml); with Klebsiella 78 strain (MIC 12.5 μ/ml); in [5] (MIC 12.5 μ/ml)) were 0, 0 and 6, respectively. In addition, the results for the “number of strains with MIC 25” value (in [1] (MIC 25 μ/ml); with Klebsiella 78 strain (MIC 25 μ/ml); in series [5] (MIC 25 μ/ml)) were 3, 0 and 0, respectively. Moreover, the figures for the “number of strains with MIC 50” value (in series [1] (MIC 50 μ/ml); in the series with Klebsiella 78 strain (MIC 50 μ/ml); in series [5] (MIC 50 μ/ml)) were 4, 8 and 0, respectively. Besides, the “number of strains with MIC 100” value in [1] (MIC 100 μ/ml) stood at 8; in the series with Klebsiella 78 strain (first column headed 100), 8; in the series on Klebsiella 78 strain (second column headed 100), 16; in series [5] (MIC 100 μ/ml), 0. Besides, the “number of strains with MIC >100” value in [1] (MIC >100 μ/ml) stood at 20; in series [5] (MIC >100 μ/ml) it was 9. The “activity against the Klebsiella genus (in words)” value in the series with Klebsiella genus was “weak antibacterial activity against the Klebsiella genus”. In the series on Klebsiella 78 strain (MIC 400 μ/ml), the “number of strains with MIC 400” value is on record as 16. In the series with Klebsiella 78 strain (MIC >400 μ/ml), the “number of strains with MIC >400” value was 27. The MLD in the series with male dd-N mice (i.v.) is 7000 mg/kg; in the series on male dd-N mice (s.c.), more than 10000 mg/kg. Moreover, the “number of living mice / number of mice inspected” value was 0/5 in series [2] (1.25 mg); 1/5 in [2] (2.5 mg); 2/5 in series [2] (5 mg); 4/5 in series [2] (10 mg); 1/5 in series [4] (15 mg); 2/5 in series [4] (30 mg). In addition, the “number of living mice / number of mice inspected” value in series [4] (60 mg) is reported as 4/5; in series [7] (2.5 × 3 mg) it was 2/5; in series [7] (5 × 3 mg) it was 0/5; in series [7] (10 × 3 mg) it was 5/5. For the same compound, the Kidney weights with male Sprague-Dawley rats [3] (1000 mg/Kg/day sc) was 2.53 g. Further, in the series on male Sprague-Dawley rats [3] (1000 mg/Kg/day sc), the “Serum urea-N” value is 24.0 mg/dL. In the series on male Sprague-Dawley rats [3] (1000 mg/Kg/day sc), the renal findings entry is given as “no abnormal findings”. The Serum urea nitrogen in the series with male Sprague-Dawley rats [6] (1000 mg/Kg s.c.) is 29.7 ± 7.2 mg/dL. For the same compound, the “nephrotoxicity (in words)” value in the series on male Sprague-Dawley rats [6] (rat, in vivo) is “no nephrotoxicity resulted”. For the same compound, the “serum urea nitrogen relative to control group (in words)” value in the series on male Sprague-Dawley rats [6] is “no remarkable difference”.

For `NC[C@H]1O[C@H](O[C@H]2[C@H](O)[C@@H](O[C@H]3O[C@H](CO)[C@@H](O)[C@H](N)[C@H]3O)[C@H](N)C[C@@H]2N)[C@H](O)[C@@H](O)[C@@H]1O` [Kanamycin], in the series on male Sprague-Dawley rats [3] (500 mg/kg/day sc), the Kidney weights came out at 3.52 g; the “Serum urea-N” value amounted to 70.7 mg/dL; the renal findings entry was “renal hypertropy, ischemia of renal cortex; also recorded: abnormal increase of serum urea-nitrogen values; also recorded: severe renal impairement”.

As to `O=C(Cc1cccs1)N[C@@H]1C(=O)N2C(C(=O)[O-])=C(C[n+]3ccccc3)CS[C@H]12` [Cephaloridine], in the series with male Sprague-Dawley rats [6] (500 mg/Kg s.c.), the Serum urea nitrogen stood at 50.7 ± 13.6 mg/dL. In addition, the “serum urea nitrogen relative to control group (in words)” value with male Sprague-Dawley rats [6] is given as “remarkable increase of serum urea nitrogen”.

For the compound `CC1(C)S[C@@H]2[C@H](NC(=O)[C@H](N)c3ccc(O)cc3)C(=O)N2[C@H]1C(=O)O` [Amoxicillin, α-amino-p-hydroxybenzylpenicillin], the “concentration in blood by oral administration” value in series [8] was “high concentration in blood by oral administration”. Besides, the “number of living mice / number of mice inspected” value in series [9] (25 × 2 mg), in series [9] (50 × 2 mg) and in series [9] (100 × 2 mg) was 0/5 each time.

With `CC1(C)S[C@@H]2[C@H](NC(=O)[C@H](N)C3=CCC=CC3)C(=O)N2[C@H]1C(=O)O` [Epicillin, 6-[D-2-amino-2-(1,4-cyclohexadien-1-yl)acetamido]penicillanic acid], the “activity to gram negative bacteria (in words)” value in the series on gram negative bacteria is listed as “selective antibacterial activity to, in particular, gram negative bacteria”.

As for `OCC(O)CO` [glycerol], in the series with male Sprague-Dawley rats [10], the renal impairment result was “mild and reversible renal impairment”.
